In one test the test system is RPMI-8826. Nature of the test: CellTiter-Glo cell viability assay, RPMI-8826. Type of test: cell-based. The method, then:
(§1) As TNF-α and related signaling cascades represent crucial factors for the single-agent activity of IAP-targeting compounds,[29],[38],[39],[55] the viability inhibition of sensitive cell lines was evaluated in the presence and absence of this inflammatory stimulus. […] These effects were independent of IAP baseline levels (Figure S16), which is in agreement with the previous studies of IAP antagonists.
(§2) Cells were seeded in 384-well plates with respective treatments, and plates were incubated at 37 °C for 96 h. Viability assays were performed with or without the addition of TNF-α at 1 ng/mL. The cell viability readout was measured using the CellTiter-Glo Luminescent Cell Viability Assay (Promega, Madison, USA) and measured with a Synergy LX Multi-Mode plate reader (BioTek, Vermont, USA). All conditions were normalized to the DMSO-treated control. Data represents the mean ± SD of biological triplicates.
Background: In ATP-based viability assays light output follows the ATP content of the culture.

A further test has as its system JJN3. Nature of the test: CellTiter-Glo cell viability assay, JJN3. It is filed as cell-based. To be noted: Homo sapiens. The protocol:
as §1, §2

The next test deals with NCI-H929. Nature of the test: CellTiter-Glo cell viability assay, NCI-H929. Type of test: cell-based. The following applies: Homo sapiens. The method, then:
as §1, §2

Another test has as its system HEL. The experiment in a line: CellTiter-Glo cell viability assay, HEL. It is filed as cell-based. To be noted: Homo sapiens. The protocol: as §1, §2
Another test concerns MOLM13. Nature of the test: CellTiter-Glo cell viability assay, MOLM13. The following applies: Homo sapiens. Type of test: cell-based. The method, then: as §1, §2
A further test concerns SUDHL4. Nature of the test: CellTiter-Glo cell viability assay, SUDHL4. It is filed as cell-based. To be noted: Homo sapiens. The protocol:
as §1, §2

Another test deals with DB. Nature of the test: CellTiter-Glo cell viability assay, DB. Type of test: cell-based. To be noted: Homo sapiens. The protocol: as §1, §2
In a further test the test system is SUDHL6. Nature of the test: CellTiter-Glo cell viability assay, SUDHL6. It is filed as cell-based. To be noted: Homo sapiens. The protocol:
as §1, §2

Another test has as its target XIAP (Homo sapiens, UniProt P98170). Nature of the test: diaPASEF quantitative proteomics in MM.1S cells: XIAP. Type of test: cell-based. Further details: endogenous in cells; host or cells: MM.1S. To be noted: 3 h; for XIAP level in global proteomics (in words): 100 nM, diaPASEF; for logFC XIAP: 0.1 μM, log2 fold change compound vs CTRLs (limma). The method, then:
To analyze the proteome-wide degradation selectivity of hetero-PROTACs 9, 25, and 27, a diaPASEF-based mass spectrometry approach was employed.[54] MM.1S cells were treated with 100 nM PROTACs for 3 h. […] Accordingly, global proteomic plots show the mathematically imputed levels of IAP proteins in treatment groups if the corresponding IAP was detected in the control treatment (see also Experimental Section).
MM1s cells were treated with DMSO or 0.1 μM of compound for 3 h. The cells were harvested by centrifugation and washed with phosphate-buffered saline before snap-freezing in liquid nitrogen. The cells were lysed by addition of lysis buffer (8 M urea, 50 mM NaCl, 50 mM 4-(2-hydroxyethyl)-1-piperazine-ethanesulfonic acid (EPPS) pH 8.5, protease, and phosphatase inhibitors) and homogenization by bead beating (BioSpec) for three repeats of 30 s at 2400. Bradford assay was used to determine the final protein concentration in the clarified cell lysate. 50 μg of protein for each sample was reduced, alkylated, and precipitated using methanol/chloroform as previously described,[64] and the resulting washed precipitated protein was allowed to air dry. The precipitated protein was resuspended in 4 M urea, 50 mM HEPES pH 7.4, followed by dilution to 1 M urea with the addition of 200 mM EPPS, pH 8. Proteins were first digested with LysC (1:50; enzyme/protein) for 12 h at RT. The LysC digestion was diluted to 0.5 M urea with 200 mM EPPS pH 8, followed by digestion with trypsin (1:50; enzyme/protein) for 6 h at 37 °C. Sample digests were acidified with formic acid to a pH of 2–3 prior to desalting using C18 solid-phase extraction plates (SOLA, Thermo Fisher Scientific). Desalted peptides were dried in a vacuum centrifuge and reconstituted in 0.1% formic acid for LC–MS analysis.
Data were collected using a TimsTOF Pro2 (Bruker Daltonics, Bremen, Germany) coupled to a nanoElute LC pump (Bruker Daltonics, Bremen, Germany) via a CaptiveSpray nanoelectrospray source. Peptides were separated on a reversed-phase C18 column (25 cm × 75 μm ID, 1.6 μM, IonOpticks, Australia) containing an integrated captive spray emitter. Peptides were separated using a 50 min gradient of 2–30% buffer B (acetonitrile in 0.1% formic acid) with a flow rate of 250 nL/min and column temperature maintained at 50 °C.
Data-Dependent Acquisition (DDA) was performed in the Parallel Accumulation-Serial Fragmentation (PASEF) mode to determine effective ion mobility windows for downstream diaPASEF data collection.[54] The diaPASEF parameters included 100% duty cycle using accumulation and ramp times of 50 ms each, 1 TIMS-MS scan, and 10 PASEF ramps per acquisition cycle. The TIMS-MS survey scan was acquired between 100–1700 m/z and 1/K0 of 0.7–1.3 V × s/cm^2. Precursors with 1–5 charges were selected, and those that reached an intensity threshold of 20,000 arbitrary units were actively excluded for 0.4 min. The quadrupole isolation width was set to 2 m/z for m/z < 700 and 3 m/z for m/z > 800, with the m/z between 700 and 800 m/z being interpolated linearly. The TIMS elution voltages were calibrated linearly with three points (Agilent ESI-L Tuning Mix Ions; 622, 922, 1222 m/z) to determine the reduced ion mobility coefficients (1/K0). To perform diaPASEF, the precursor distribution in the DDA m/z-ion mobility plane was used to design an acquisition scheme for DIA data collection, which included two windows in each 50 ms diaPASEF scan. Data was acquired using 16 of these 25 Da precursor double window scans (creating 32 windows), which covered the diagonal scan line for doubly and triply charged precursors, with singly charged precursors able to be excluded by their position in the m/z-ion mobility plane. These precursor isolation windows were defined between 400–1200 m/z and 1/K0 of 0.7–1.3 V × s/cm^2. […]

In the next test the target is cIAP1 (Homo sapiens, UniProt Q13490). The experiment in a line: Immunoblotting (western blot) quantification of cIAP1 levels in MM.1S cells. Also on record: Dmax: dose or concentration left out as unconfirmed.
[1] abbreviates: SI csv, head prints only the cell line, no quantity or unit, values parallel Table 1/S8, read-out: DB.
Where [2] appears, read: MM1.S, 16 h, read-out: %remaining protein cIAP1, MM.1S cells, 16 h treatment at 0.1 μM, normalized to loading control and DMSO.

Each structure is given as a SMILES string. Where two headings read alike, the source gives them in different places.

XIAP, sequence (P98170 whole entry): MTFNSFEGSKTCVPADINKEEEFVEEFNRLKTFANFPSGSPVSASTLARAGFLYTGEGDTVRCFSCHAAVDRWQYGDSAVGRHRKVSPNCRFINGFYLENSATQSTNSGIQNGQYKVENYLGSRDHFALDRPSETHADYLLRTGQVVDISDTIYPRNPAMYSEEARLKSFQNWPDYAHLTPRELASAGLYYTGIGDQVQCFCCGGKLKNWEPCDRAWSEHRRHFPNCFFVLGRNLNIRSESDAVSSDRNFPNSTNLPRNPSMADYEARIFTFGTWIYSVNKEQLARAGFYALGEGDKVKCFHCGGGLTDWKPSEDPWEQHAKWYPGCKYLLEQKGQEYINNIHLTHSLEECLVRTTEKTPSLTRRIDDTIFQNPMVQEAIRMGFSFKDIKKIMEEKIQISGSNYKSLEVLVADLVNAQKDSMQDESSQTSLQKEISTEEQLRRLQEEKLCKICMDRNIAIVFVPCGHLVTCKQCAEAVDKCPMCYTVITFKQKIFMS
cIAP1, sequence (Q13490 whole entry): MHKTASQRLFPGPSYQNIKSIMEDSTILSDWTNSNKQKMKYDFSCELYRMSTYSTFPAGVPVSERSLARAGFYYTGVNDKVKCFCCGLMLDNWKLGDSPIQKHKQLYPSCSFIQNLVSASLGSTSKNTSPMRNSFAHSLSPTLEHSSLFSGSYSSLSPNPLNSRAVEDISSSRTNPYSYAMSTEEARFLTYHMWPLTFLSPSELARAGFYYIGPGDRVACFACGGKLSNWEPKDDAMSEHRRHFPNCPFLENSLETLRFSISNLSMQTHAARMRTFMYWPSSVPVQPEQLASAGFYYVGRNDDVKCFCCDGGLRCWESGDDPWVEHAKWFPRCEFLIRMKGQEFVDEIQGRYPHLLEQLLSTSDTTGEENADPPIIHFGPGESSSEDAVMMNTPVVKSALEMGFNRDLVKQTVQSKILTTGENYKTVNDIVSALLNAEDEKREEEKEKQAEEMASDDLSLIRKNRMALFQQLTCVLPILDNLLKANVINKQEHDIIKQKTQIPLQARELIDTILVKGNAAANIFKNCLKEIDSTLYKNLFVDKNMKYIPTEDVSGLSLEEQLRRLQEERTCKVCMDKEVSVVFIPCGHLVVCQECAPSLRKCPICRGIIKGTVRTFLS
Experimental for cIAP1: To evaluate the capability of our panel of hetero-PROTACs for E3 ligase degradation, VHL19, VHL30, CRBN, cIAP1, cIAP2, and XIAP levels were quantified by western blot analyses. […] SDS-PAGE was performed, and proteins were then transferred onto PVDF membranes. Blotted membranes were blocked with 5% milk in Tris-buffered saline/Tween20 (TBST). Primary antibodies were diluted in 5% BSA in TBST, and incubations were performed overnight at 4 °C. Secondary HRP-conjugated antibodies diluted in 5% milk were incubated for 1 h at room temperature. Detection of proteins on PVDF was carried out using the WesternBright ECL HRP substrate or the WesternBright Sirius HRP substrate (Advansta, San Jose, USA) and imaged with LAS 4000× (Fujifilm). Membranes were subjected to 10 min incubation with Restore Western Blot Stripping Buffer (Thermo Fisher Scientific, Waltham, USA), followed by TBST washes. After brief re-activation with methanol, the membranes were blocked, and further probing of proteins was carried out.
Quantification of blots was performed using ImageJ software (National Institutes of Health).

Regarding `CN[C@@H](C)C(=O)N[C@@H](C(=O)N1CCC[C@H]1C(=O)N[C@@H]1c2ccccc2C[C@@H]1OCC#CC#CCO[C@H]1Cc2ccccc2[C@H]1NC(=O)[C@@H]1CCCN1C(=O)[C@H](NC(=O)[C@H](C)NC)C1CCCCC1)C1CCCCC1` [AZD5582, reference compound], the IC50 in the test with RPMI-8826 (SI csv, head prints only the cell line, no quantity or unit, values parallel Table 1/S8, read-out: RPMI-8826) turned out to be 470 nM; with JJN3 (JJN-3, SI csv, head prints only the cell line, no quantity or unit, values parallel Table 1/S8, read-out: JJN3), 200 nM; with NCI-H929 (SI csv, head prints only the cell line, no quantity or unit, values parallel Table 1/S8, read-out: NCI-H929), 14 nM; with HEL (SI csv, head prints only the cell line, no quantity or unit, values parallel Table 1/S8, read-out: HEL), 64 nM; in the test with MOLM13 (MOLM-13, SI csv, head prints only the cell line, no quantity or unit, values parallel Table 1/S8, read-out: MOLM13), 2 nM; with SUDHL4 (SU-DHL-4, SI csv, head prints only the cell line, no quantity or unit, values parallel Table 1/S8, read-out: SUDHL4), 1640 nM. Moreover, the IC50 turned out to be 73 nM in the test on DB (setting [1]) and 1.5 nM with SUDHL6 (SU-DHL-6, SI csv, head prints only the cell line, no quantity or unit, values parallel Table 1/S8, read-out: SUDHL6). The “XIAP level in global proteomics (in words)” value (“XIAP level” below) on XIAP is recorded as “did not cause XIAP degradation”. The “cIAP1 degradation (in words)” value on cIAP1 (MM.1S cells, 16 h, western blot, 0.1 or 1 μM) is “substantial degradation”.
Broadly, the Dmax is the greatest extent of degradation seen. Consider `CN[C@@H](C)C(=O)N[C@H](C(=O)N1C[C@@H](Oc2cccc(OCCCCC(=O)N[C@H](C(=O)N3C[C@H](O)C[C@H]3C(=O)N[C@@H](C)c3ccc(-c4scnc4C)cc3)C(C)(C)C)c2)C[C@H]1C(=O)N[C@@H]1CCCc2ccccc21)C1CCCCC1` [PROTAC 9, (2S,4S)-1-((S)-2-Cyclohexyl-2-((S)-2-(methylamino)propanamido)acetyl)-4-(3-((5-(((S)-1-((2S,4R)-4-hydroxy-2-(((S)-1-(4-(4-methylthiazol-5-yl)phenyl)ethyl)carbamoyl)pyrrolidin-1-yl)-3,3-dimethyl-1-oxobutan-2-yl)amino)-5-oxopentyl)oxy)phenoxy)-N-((R)-1,2,3,4-tetrahydronaphthalen-1-yl)pyrrolidine-2-carboxamide], for which the IC50 came out at 2540 nM in the test on RPMI-8826 (MM cell line, 96 h, TNFα-challenged, read-out: IC50 cell viability RPMI-8826); 1140 nM with JJN3 (JJN-3, MM cell line, 96 h, TNFα-challenged, read-out: IC50 cell viability JJN3); 8.5 nM in the test on NCI-H929 (NCI-H929, MM cell line, 96 h, TNFα-challenged, read-out: IC50 cell viability NCI-H929); 1170 nM in the test with HEL (HEL, AML cell line, 96 h, TNFα-challenged, read-out: IC50 cell viability HEL); 2.1 nM in the test with MOLM13 (MOLM-13, AML cell line, 96 h, TNFα-challenged, read-out: IC50 cell viability MOLM13); 1690 nM in the test with SUDHL4 (SU-DHL-4, DLBCL cell line, 96 h, TNFα-challenged, read-out: IC50 cell viability SUDHL4). The IC50 amounted to 460 nM in the test on DB (DB, DLBCL cell line, 96 h, TNFα-challenged, read-out: IC50 cell viability DB); 510 nM with DB (setting [1]); 1.6 nM in the test with SUDHL6 (SU-DHL-6, DLBCL cell line, 96 h, TNFα-challenged, read-out: IC50 cell viability SUDHL6). In addition, the “logFC XIAP” value at XIAP was -1.764. For the same compound, at XIAP, the “XIAP level” value is “below the detection level”. Besides, on cIAP1 (setting [2]), the remaining activity at 0.1 µM amounted to 5%. In addition, the Dmax on cIAP1 (MM1.S, read-out: Dmax cIAP1 (maximum degradation), MM.1S cells, 16 h) worked out at 99%. Besides, the “Dmax cIAP1 (maximum degradation)” value on cIAP1 (MM.1S cells, 16 h, at 0.1 μM) is listed as more than 99%. Besides, at cIAP1 (read-out: DC50,16h cIAP1, MM.1S cells, 16 h, densitometric quantification of western blots, n = 4), the DC50 is 2.4 nM.
With `CN[C@@H](C)C(=O)N[C@H](C(=O)N1C[C@@H](Oc2cccc(OCCOCCCCCCOCCCCCCNc3cccc4c3C(=O)N(C3CCC(=O)NC3=O)C4=O)c2)C[C@H]1C(=O)N[C@@H]1CCCc2ccccc21)C1CCCCC1` (stereo partly drawn) [PROTAC 25, (2S,4S)-1-((S)-2-Cyclohexyl-2-((S)-2-(methylamino)propanamido)acetyl)-4-(3-(2-((6-((6-((2-(2,6-dioxopiperidin-3-yl)-1,3-dioxoisoindolin-4-yl)amino)hexyl)oxy)hexyl)oxy)ethoxy)phenoxy)-N-((R)-1,2,3,4-tetrahydronaphthalen-1-yl)pyrrolidine-2-carboxamide], the IC50 with RPMI-8826 (read-out: RPMI-8826) amounted to 1520 nM; in the test on JJN3 (JJN-3, read-out: JJN3), 180 nM; in the test on NCI-H929 (NCI-H929, 96 h, read-out: IC50 cell viability NCI-H929), 27 nM; with HEL (HEL, read-out: HEL), 300 nM; in the test on MOLM13 (MOLM-13, read-out: MOLM13), 52 nM; in the test with SUDHL4 (SU-DHL-4, read-out: SUDHL4) it was 920 nM. Moreover, the IC50 amounted to 160 nM in the test on DB (DB, read-out: DB) and 14 nM in the test on SUDHL6 (SU-DHL-6, read-out: SUDHL6). Moreover, at XIAP, the “logFC XIAP” value is given as -3.7. The “XIAP level” value on XIAP is “below the detection level”. The remaining activity at 0.1 µM on cIAP1 (MM1.S, 16 h, read-out: %remaining protein cIAP1) turned out to be 5%.
Take `CN[C@@H](C)C(=O)N[C@H](C(=O)N1C[C@@H](Oc2cccc(OCCCCCCOCCCCCCOCCCCCCNc3cccc4c3C(=O)N(C3CCC(=O)NC3=O)C4=O)c2)C[C@H]1C(=O)N[C@@H]1CCCc2ccccc21)C1CCCCC1` (stereo partly drawn) [PROTAC 27, (2S,4S)-1-((S)-2-Cyclohexyl-2-((S)-2-(methylamino)propanamido)acetyl)-4-(3-((6-((6-((6-((2-(2,6-dioxopiperidin-3-yl)-1,3-dioxoisoindolin-4-yl)amino)hexyl)oxy)hexyl)oxy)hexyl)oxy)phenoxy)-N-((R)-1,2,3,4-tetrahydronaphthalen-1-yl)pyrrolidine-2-carboxamide]: the “XIAP level” value at XIAP was “selective XIAP degradation”. Further, at cIAP1 (setting [2]), the remaining activity at 0.1 µM is 27%.
